From ChEMBL document CHEMBL1201862, “PubChem BioAssay data set” (2004)
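Where inhibition never reached the appropriate level, the endpoint shown equals the highest concentration tested. Otherwise, values were interpolated linearly from a five-concentration, 48-hour dose response in 96-well plates. GI50: concentration for 50% inhibition of growth.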 Calls of active or inactive are those of the source. Cut-off read from the data, not from the text of the source: active = GI50 up to about 1.1 µM and inactive = higher. Peptide text beside a SMILES is read from it. * marks the point of attachment. Boc = CC(C)(C)OC(=O)*

Assays:
Test in all cases: NCI anticancer screen, dose series, 48 h
HCT-116 = system: HCT-116
OVCAR-5 = system: OVCAR-5
SF-295 = system: SF-295
NCI-H226 = system: NCI-H226
MDA-MB-435 = system: MDA-MB-435
HOP-62 = system: HOP-62
HCT-15 = system: HCT-15
Malme-3M = system: Malme-3M
SW-620 = system: SW-620
786-0 = system: 786-0
RXF 393 = system: RXF 393
UACC-257 = system: UACC-257
OVCAR-4 = system: OVCAR-4
U-251 = system: U-251
SK-MEL-2 = system: SK-MEL-2
OVCAR-8 = system: OVCAR-8
SF-539 = system: SF-539
MCF7 = system: MCF7
HL-60 = system: HL-60
A498 = system: A498

Row | SMILES | GI50 (HCT-116) | GI50 (OVCAR-5) | GI50 (SF-295) | GI50 (NCI-H226) | GI50 (MDA-MB-435) | GI50 (HOP-62) | GI50 (HCT-15) [µM] | GI50 (Malme-3M) | GI50 (SW-620) | GI50 (786-0) | GI50 (RXF 393) | GI50 (UACC-257) | GI50 (OVCAR-4) | GI50 (U-251) | GI50 (SK-MEL-2) | GI50 (OVCAR-8) | GI50 (SF-539) | GI50 (MCF7) | GI50 (HL-60) | GI50 (A498)
1 | Cc1cc(S(=O)(=O)O)ccc1/N=N/c1ccc(/N=N/c2c(O)ccc3ccccc23)c(C)c1 | 34.2 µM (inactive) | > 100 µM (inactive) | 94.8 µM (inactive) | 85.3 µM (inactive) | 37.9 µM (inactive) | > 100 µM (inactive) | 32.1 | > 100 µM (inactive) | 42.3 µM (inactive) | 21.3 µM (inactive) | > 100 µM (inactive) | > 100 µM (inactive) | 51.2 µM (inactive) | 36.4 µM (inactive) | > 100 µM (inactive) | 49.8 µM (inactive) |  |  |  | 
2 | O=C(Nc1ccccc1)Nn1c(-c2cccs2)nc2ccc(I)cc2c1=O | 31.4 µM (inactive) | 27.7 µM (inactive) | 42.6 µM (inactive) | 28.8 µM (inactive) | 20.1 µM (inactive) | 51.4 µM (inactive) | 31.5 |  | 39.4 µM (inactive) | 61.7 µM (inactive) | 30.4 µM (inactive) | 17.2 µM (inactive) | 16.9 µM (inactive) | 23.9 µM (inactive) |  | 33.3 µM (inactive) | 33.7 µM (inactive) | 29.1 µM (inactive) | 1.41 µM (inactive) | 
3 | C#CCCCC(=O)N(C(=O)C[S+]([O-])CC)c1ccccc1 (configuration not stated) | > 100 µM (inactive) | > 100 µM (inactive) | > 100 µM (inactive) | > 100 µM (inactive) | > 100 µM (inactive) | > 100 µM (inactive) | > 100 | > 100 µM (inactive) | > 100 µM (inactive) | > 100 µM (inactive) | > 100 µM (inactive) | > 100 µM (inactive) | > 100 µM (inactive) | > 100 µM (inactive) | > 100 µM (inactive) | > 100 µM (inactive) | > 100 µM (inactive) | > 100 µM (inactive) | > 100 µM (inactive) | 
4 | CCc1n[nH]c(=O)[nH]1 | > 100 µM (inactive) | > 100 µM (inactive) | > 100 µM (inactive) |  | > 100 µM (inactive) | > 100 µM (inactive) | > 100 | > 100 µM (inactive) |  | > 100 µM (inactive) | > 100 µM (inactive) | > 100 µM (inactive) |  |  | > 100 µM (inactive) | > 100 µM (inactive) | > 100 µM (inactive) | > 100 µM (inactive) | > 10 µM (inactive) | 
5 | CCOP(=O)(OCC)C(NC(=O)C(C(F)(F)F)C(F)(F)F)c1ccccc1 (configuration not stated) | > 100 µM (inactive) | > 100 µM (inactive) | > 100 µM (inactive) |  | > 100 µM (inactive) | > 100 µM (inactive) | > 100 | > 100 µM (inactive) | > 100 µM (inactive) | > 100 µM (inactive) | > 100 µM (inactive) | > 100 µM (inactive) | > 100 µM (inactive) | > 100 µM (inactive) | > 100 µM (inactive) | > 100 µM (inactive) | > 100 µM (inactive) | 97.9 µM (inactive) | 24.6 µM (inactive) | 
6 | NC(CCP(=O)(O)O)C(=O)O (configuration not stated) | > 100 µM (inactive) | > 100 µM (inactive) | > 100 µM (inactive) | > 100 µM (inactive) | > 100 µM (inactive) | > 100 µM (inactive) | > 100 | > 100 µM (inactive) | > 100 µM (inactive) | > 100 µM (inactive) | > 100 µM (inactive) | > 100 µM (inactive) | > 100 µM (inactive) | > 100 µM (inactive) | > 100 µM (inactive) | > 100 µM (inactive) |  |  | > 100 µM (inactive) | > 100 µM (inactive)
7 | NC(CCC(=O)O)(CCC(=O)O)CCC(=O)O | > 100 µM (inactive) | > 100 µM (inactive) | > 100 µM (inactive) | > 100 µM (inactive) | > 100 µM (inactive) |  | > 100 | > 100 µM (inactive) | > 100 µM (inactive) | > 100 µM (inactive) | > 100 µM (inactive) | > 100 µM (inactive) |  | > 100 µM (inactive) | > 100 µM (inactive) | > 100 µM (inactive) | > 100 µM (inactive) | > 100 µM (inactive) |  | 
8 | O=C(/C=C/c1ccc(Br)cc1)c1ccc(NCc2nc3ccccc3[nH]2)cc1 | 4.66 µM (inactive) | > 59.8 µM (inactive) | 4.61 µM (inactive) | 10.9 µM (inactive) |  | 22.2 µM (inactive) | 3.95 | 25 µM (inactive) | 2.96 µM (inactive) | 5.25 µM (inactive) | 4.35 µM (inactive) | 3.81 µM (inactive) | 14.4 µM (inactive) | 3.83 µM (inactive) | 17.6 µM (inactive) | 3.37 µM (inactive) | 10 µM (inactive) |  | 5.86 µM (inactive) | 19.1 µM (inactive)
9 | COC(=O)C(Cc1c[nH]c2ccccc12)NC(=O)C(Cc1c[nH]c2ccccc12)NC(=O)C(Cc1c[nH]c2ccccc12)NC(=O)C(Cc1c[nH]c2ccccc12)NC(=O)C(Cc1c[nH]c2ccccc12)NC(=O)OC(C)(C)C (configuration not stated) (Boc-WWWWW-OMe; configuration not given here) | 29.7 µM (inactive) | > 100 µM (inactive) |  | 42 µM (inactive) | > 100 µM (inactive) | > 100 µM (inactive) | > 100 | 94.2 µM (inactive) | > 100 µM (inactive) | 60 µM (inactive) |  | > 100 µM (inactive) | > 100 µM (inactive) | 65.9 µM (inactive) | 45.2 µM (inactive) | > 100 µM (inactive) |  | 84.1 µM (inactive) | 33 µM (inactive) | 
10 | COc1cc2cc(OC)c3cc4c(cc3c2c(OC)c1OC)OCO4 | 38.2 µM (inactive) | 25.2 µM (inactive) | 28.1 µM (inactive) | > 100 µM (inactive) |  | 42.6 µM (inactive) | 12.8 | 52.4 µM (inactive) | 18.6 µM (inactive) | 27.9 µM (inactive) | 42.9 µM (inactive) | 34.9 µM (inactive) | 39.4 µM (inactive) | 20.8 µM (inactive) | 71 µM (inactive) | > 59.4 µM (inactive) | 31.6 µM (inactive) |  | 15.3 µM (inactive) | > 45.5 µM (inactive)
11 | CSC(=S)N/N=C/c1nccc2ccccc12 | 1.25 µM (inactive) | 2.74 µM (inactive) | 1.48 µM (inactive) | 1.69 µM (inactive) |  | 2.25 µM (inactive) | 3.45 | 1.34 µM (inactive) | 0.631 µM (active) | 2.39 µM (inactive) | 0.721 µM (active) | 2.07 µM (inactive) | 1.16 µM (inactive) | 0.875 µM (active) | 1.07 µM (active) | 0.454 µM (active) | 1.08 µM (active) |  | 0.372 µM (active) | 2.45 µM (inactive)
12 | CCOC(=O)n1c2ccccc2c(=O)n1CCO | > 100 µM (inactive) | > 100 µM (inactive) | > 100 µM (inactive) | > 100 µM (inactive) |  | > 100 µM (inactive) | > 100 | > 100 µM (inactive) | > 100 µM (inactive) | > 100 µM (inactive) | 24.2 µM (inactive) | > 100 µM (inactive) | > 100 µM (inactive) | > 100 µM (inactive) | > 100 µM (inactive) | > 100 µM (inactive) | > 100 µM (inactive) | > 100 µM (inactive) | > 100 µM (inactive) | > 100 µM (inactive)
13 | NC1=NNC2(C(N)=N1)c1ccccc1-c1ccccc12 | > 10 µM (inactive) |  | > 10 µM (inactive) | > 10 µM (inactive) | > 10 µM (inactive) | > 10 µM (inactive) | > 10 | > 10 µM (inactive) | > 10 µM (inactive) | > 10 µM (inactive) | > 10 µM (inactive) | > 10 µM (inactive) | > 10 µM (inactive) |  |  | > 10 µM (inactive) | > 10 µM (inactive) | > 10 µM (inactive) | > 10 µM (inactive) | 
14 | COC(=O)C1=Nc2c(C)nn(-c3ccccc3)c2N=C(c2ccc([N+](=O)[O-])cc2)C1 | > 10 µM (inactive) | 5.98 µM (inactive) | > 10 µM (inactive) |  | > 10 µM (inactive) | > 10 µM (inactive) | > 10 | > 10 µM (inactive) | > 10 µM (inactive) | > 10 µM (inactive) |  | > 10 µM (inactive) | > 10 µM (inactive) | > 10 µM (inactive) |  | > 10 µM (inactive) | > 10 µM (inactive) | > 10 µM (inactive) | > 10 µM (inactive) | 
15 | CC(=O)N1N=C(c2ccccc2Nc2ccccc2C2=NN(C(C)=O)C(c3ccccc3)O2)OC1c1ccccc1 (configuration not stated) | 32.5 µM (inactive) | > 100 µM (inactive) | 32.8 µM (inactive) | > 100 µM (inactive) | 14.7 µM (inactive) | > 100 µM (inactive) | 44.8 | > 100 µM (inactive) | 99.8 µM (inactive) | > 100 µM (inactive) | 46.8 µM (inactive) |  | 29.8 µM (inactive) | 63.5 µM (inactive) | 73.3 µM (inactive) | 71.6 µM (inactive) |  | 11.5 µM (inactive) |  | 
16 | COc1ccc(N2C(=O)C3c4[nH]c5cc(Cl)ccc5c4C4CCC(C(C)(C)C)CC4C3C2=O)cc1 (configuration not stated) | 55.6 µM (inactive) |  | > 100 µM (inactive) | > 100 µM (inactive) | > 100 µM (inactive) | > 100 µM (inactive) | 87.5 |  | 69.8 µM (inactive) | > 100 µM (inactive) | > 100 µM (inactive) | > 100 µM (inactive) | 94.4 µM (inactive) | 95.1 µM (inactive) |  | > 100 µM (inactive) | 96.8 µM (inactive) | 33.7 µM (inactive) | 26.9 µM (inactive) | 
